The record followed here is patent US8394969B2, “Cyclic benzimidazole derivatives useful as anti-diabetic agents” (Merck Sharp & Dohme Corp., priority 2008, dated 2013).

Molecules are shown by their SMILES. Counter-ions that a name gives are not always drawn. Like-named read-outs stand apart in the source and are kept apart here.

This test concerns the target recombinant human AMPK complex 1 (containing α1β1γ1) (Homo sapiens, UniProt Q13131+Q9Y478). The test is described as follows: […] (in vitro AMPK activation assay). Format: biochemical. The conditions noted are these: for Emax: basal activity subtracted; for EC50: read-out: EC50.
Where [1] appears, read: recombinant human AMPK complex 1 (α1β1γ1), read-out: % Maximum AMP Activation of human AMPK Complex 1.
Where [2] appears, read: recombinant human AMPK complex 1 (α1β1γ1).
Where [3] appears, read: read-out: % Maximum AMP Activation of human AMPK Complex 1, recombinant human AMPK complex 1 (α1β1γ1).

Chain of recombinant human AMPK complex 1 (containing α1β1γ1) (Q13131 whole entry): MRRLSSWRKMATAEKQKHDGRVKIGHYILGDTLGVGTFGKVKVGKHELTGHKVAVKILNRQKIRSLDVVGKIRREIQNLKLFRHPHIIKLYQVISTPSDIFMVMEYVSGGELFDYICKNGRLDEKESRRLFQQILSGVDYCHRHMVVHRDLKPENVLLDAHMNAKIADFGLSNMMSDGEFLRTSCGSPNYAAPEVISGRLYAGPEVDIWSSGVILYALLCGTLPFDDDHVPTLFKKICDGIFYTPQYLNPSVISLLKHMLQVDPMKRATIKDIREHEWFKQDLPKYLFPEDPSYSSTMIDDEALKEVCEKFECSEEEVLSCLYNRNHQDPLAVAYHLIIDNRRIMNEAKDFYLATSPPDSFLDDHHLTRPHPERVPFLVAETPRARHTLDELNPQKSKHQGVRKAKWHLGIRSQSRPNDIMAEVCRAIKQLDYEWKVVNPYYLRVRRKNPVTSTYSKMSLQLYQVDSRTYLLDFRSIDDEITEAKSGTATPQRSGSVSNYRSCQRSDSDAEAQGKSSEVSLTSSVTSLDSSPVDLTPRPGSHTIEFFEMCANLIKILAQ
Chain of recombinant human AMPK complex 1 (containing α1β1γ1) (Q9Y478 whole entry): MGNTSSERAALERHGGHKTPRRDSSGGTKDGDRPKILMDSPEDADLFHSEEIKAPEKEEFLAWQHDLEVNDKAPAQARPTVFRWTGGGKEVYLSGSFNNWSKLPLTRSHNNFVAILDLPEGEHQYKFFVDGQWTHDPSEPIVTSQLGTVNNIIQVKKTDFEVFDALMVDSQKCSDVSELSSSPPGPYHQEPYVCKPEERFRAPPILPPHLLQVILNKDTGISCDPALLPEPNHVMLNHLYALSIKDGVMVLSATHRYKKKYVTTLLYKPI
Chain of recombinant human AMPK complex 1 (containing α1β1γ1) (P54619 whole entry partner): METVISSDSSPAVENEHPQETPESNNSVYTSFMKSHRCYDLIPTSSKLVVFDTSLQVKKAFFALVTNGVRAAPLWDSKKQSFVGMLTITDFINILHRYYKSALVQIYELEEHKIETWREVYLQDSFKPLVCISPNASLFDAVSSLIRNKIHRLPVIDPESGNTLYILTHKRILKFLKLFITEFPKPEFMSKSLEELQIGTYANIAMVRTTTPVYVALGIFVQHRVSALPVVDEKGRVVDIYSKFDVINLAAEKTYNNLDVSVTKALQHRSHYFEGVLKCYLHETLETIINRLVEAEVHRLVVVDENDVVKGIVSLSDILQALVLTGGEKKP

With `Cc1ccc(Oc2nc3cc(-c4ccc5c(c4)CNC5)c(Cl)cc3[nH]2)cc1C(=O)O` [Example 301, 5-[2-(3-carboxy-4-methylphenoxy)-6-chloro-1H-benzimidazol-5-yl]-2,3-dihydro-1H-isoindolium trifluoroacetate], under setting [1], the Emax was above 80%. On to `Cc1ccc(Oc2nc3cc(-c4cccc(-c5ccccc5)c4)c(Cl)cc3[nH]2)cc1C(=O)O` [Example 302, 5-(5-Biphenyl-3-yl-6-chloro-1H-benzoimidazol-2-yloxy)-2-methyl-benzoic acid], for which, under setting [1], the Emax is above 80%. For the molecule `Cc1ccc(Oc2nc3cc(-c4ccc(-c5ccccc5)c(C)c4)c(Cl)cc3[nH]2)cc1C(=O)O` [Example 303, 5-[6-Chloro-5-(2-methyl-biphenyl-4-yl)-1H-benzoimidazol-2-yloxy]-2-methyl-benzoic acid], the Emax under setting [1] was above 80%.

Turning to `Cc1ccc(Oc2nc3cc(-c4ccc5c(c4)CC(=O)N5C)c(Cl)cc3[nH]2)cc1C(=O)O` [Example 304, 5-[6-Chloro-5-(1-methyl-2-oxo-2,3-dihydro-1H-indol-5-yl)-1H-benzoimidazol-2-yloxy]-2-methyl-benzoic acid], under setting [1], the Emax was above 80%. The same measure, in the same setting: for `Cc1ccc(Oc2nc3cc(-c4ccc5c(c4)CNC5=O)c(Cl)cc3[nH]2)cc1C(=O)O` [Example 305, 5-[6-Chloro-5-(1-oxo-2,3-dihydro-1H-isoindol-5-yl)-1H-benzoimidazol-2-yloxy]-2-methyl-benzoic acid] the value was above 80%; for `CC(=O)N1CCc2cc(-c3cc4nc(Oc5ccc(C)c(C(=O)O)c5)[nH]c4cc3Cl)ccc21` [Example 306, 5-[5-(1-Acetyl-2,3-dihydro-1H-indol-5-yl)-6-chloro-1H-benzoimidazol-2-yloxy]-2-methyl-benzoic acid], above 80%. On the same count and under the same terms, for `Cc1ccc(Oc2nc3cc(-c4ccc5c(c4)CC(=O)N5)c(Cl)cc3[nH]2)cc1C(=O)O` [Example 307, 5-[6-Chloro-5-(2-oxo-2,3-dihydro-1H-indol-5-yl)-1H-benzoimidazol-2-yloxy]-2-methyl-benzoic acid] the value was above 80%; for `Cc1ccc(Oc2nc3cc(-c4ccc5c(c4)OC(F)(F)O5)c(Cl)cc3[nH]2)cc1C(=O)O` [Example 308, 5-[6-Chloro-5-(2,2-difluoro-benzo[1,3]dioxol-5-yl)-1H-benzoimidazol-2-yloxy]-2-methyl-benzoic acid], above 80%; for `COc1ccc2cc(-c3cc4nc(Oc5ccc(Cl)c(C(=O)O)c5)[nH]c4cc3Cl)ccc2c1` [Example 309, 2-Chloro-5-[6-chloro-5-(6-methoxy-naphthalen-2-yl)-1H-benzoimidazol-2-yloxy]-benzoic acid], above 80%. Consider `COc1ccc2cc(-c3cc4nc(Oc5cc(C)c(C)c(C(=O)O)c5)[nH]c4cc3Cl)ccc2c1` [Example 310, 5-[6-Chloro-5-(6-methoxy-naphthalen-2-yl)-1H-benzoimidazol-2-yloxy]-2,3-dimethyl-benzoic acid], for which the Emax under setting [1] was above 80%. `Cc1cc(Oc2nc3cc(-c4ccc5c(ccn5C)c4)c(Cl)cc3[nH]2)cc(C(=O)O)c1C` [Example 311, 5-[6-Chloro-5-(1-methyl-1H-indol-5-yl)-1H-benzoimidazol-2-yloxy]-2,3-dimethyl-benzoic acid]: the Emax under setting [1] was above 80%. Still for that read-out and setting: for `Cc1cc(Oc2nc3cc(-c4ccc5c(c4)OCCN5C)c(Cl)cc3[nH]2)cc(C(=O)O)c1C` [Example 312, 5-[6-Chloro-5-(4-methyl-3,4-dihydro-2H-benzo[1,4]oxazin-7-yl)-1H-benzoimidazol-2-yloxy]-2,3-dimethyl-benzoic acid] the value was above 80%; for `Cc1cc(Oc2nc3cc(-c4ccc(-c5ccc(O)nc5)cc4)c(Cl)cc3[nH]2)cc(C(=O)O)c1C` [Example 313, 5-{6-Chloro-5-[4-(6-hydroxy-pyridin-3-yl)-phenyl]-1H-benzoimidazol-2-yloxy}-2,3-dimethyl-benzoic acid], above 80%; for `COC(=O)c1cc(Oc2nc3cc(-c4ccc(-c5ccc(OC)nc5)cc4)c(Cl)cc3[nH]2)cc(C)c1C` [Example 314, 5-{6-Chloro-5-[4-(6-methoxy-pyridin-3-yl)-phenyl]-1H-benzoimidazol-2-yloxy}-2,3-dimethyl-benzoic acid methyl ester], above 80%. Regarding `COc1ccc(-c2ccc(-c3cc4nc(Oc5cc(C)c(C)c(C(=O)O)c5)[nH]c4cc3Cl)cc2)cn1` [Example 315, 5-{6-Chloro-5-[4-(6-methoxy-pyridin-3-yl)-phenyl]-1H-benzoimidazol-2-yloxy}-2,3-dimethyl-benzoic acid], under setting [1], the Emax was above 80%. The same measure, in the same setting: for `Cc1cc(Oc2nc3cc(-c4ccc(C(C)(C)O)cc4)c(Cl)cc3[nH]2)cc(C(=O)O)c1C` [Example 316, 5-{6-Chloro-5-[4-(1-hydroxy-1-methyl-ethyl)-phenyl]-1H-benzoimidazol-2-yloxy}-2,3-dimethyl-benzoic acid] the value was above 80%; for `CC(=O)c1ccc(-c2cc3nc(Oc4cc(C)c(C)c(C(=O)O)c4)[nH]c3cc2Cl)cc1` [Example 317, 5-[5-(4-Acetyl-phenyl)-6-chloro-1H-benzoimidazol-2-yloxy]-2,3-dimethyl-benzoic acid], above 80%; for `Cc1ccc(Oc2nc3cc(-c4ccc(N(C)C)cc4)c(Cl)cc3[nH]2)cc1C(=O)O` [Example 318, 2-(3-carboxy-4-methylphenoxy)-6-chloro-5-[4-(dimethylamino)phen-yl]-1H-benzimidazol-3-ium chloride], above 80%. Still for that read-out and setting: the result for `Cc1ccc(Oc2nc3cc(-c4ccc5c(c4)CCN5CCO)c(Cl)cc3[nH]2)cc1C(=O)O` [Example 319, 5-({6-chloro-5-[1-(2-hydroxyethyl)-2,3-dihydro-1H-indol-5-yl]-1 H-benzimidazol-2-yl}oxy)-2-methylbenzoic acid] reads above 80%; that for `Cc1ccc(Oc2nc3cc(-c4cccc5c4CCN5C(C)C)c(Cl)cc3[nH]2)cc1C(=O)O` [Example 324, 5-{[6-chloro-5-(1-isopropyl-2,3-dihydro-1H-indol-4-yl)-1H-benzimidazol-2-yl]oxy}-2-methylbenzoic acid], above 80%.

For the molecule `Cc1ccc(Oc2nc3cc(-c4cc5ccn(CCO)c5cc4F)c(Cl)cc3[nH]2)cc1C(=O)O` [Example 325, 5-({6-chloro-5-[6-fluoro-1-(2-hydroxyethyl)-1H-indol-5-yl]-1H-benzimidazol-2-yl}oxy)-2-methylbenzoic acid], the EC50 under setting [2] is 5 nM.

`COc1ccc(-c2cc3nc(Oc4ccc(C)c(C(=O)O)c4)[nH]c3cc2Cl)c(F)c1` [Example 326, 5-{[6-chloro-5-(2-fluoro-4-methoxyphenyl)-1H-benzimidazol-2-yl]oxy}-2-methylbenzoic acid]: the EC50 under setting [2] came to 10 nM.

For the molecule `Cc1cc(-c2cc3nc(Oc4ccc(C)c(C(=O)O)c4)[nH]c3cc2Cl)ccc1F` [Example 328, Ammonium 5-{[6-chloro-5-(4-fluoro-3-methylphenyl-1H-benzimidazol-2-yl]oxy}-2-methylbenzoate], the Emax under setting [3] was above 80%. As for `Cc1ccc(Oc2nc3cc(-c4ccccc4C(C)C)c(Cl)cc3[nH]2)cc1C(=O)O` [Example 329, Ammonium 5-{[6-chloro-5-(2-isopropylphenyl)-1H-benzimidazol-2-yl]oxy}-2-methylbenzoate], the Emax under setting [3] is above 80%. `Cc1ccc(Oc2nc3cc(-c4ccc(CO)cc4)c(Cl)cc3[nH]2)cc1C(=O)O` [Example 330, 2-(3-carboxy-4-methylphenoxy)-6-chloro-5-[4-(hydroxymethyl)phenyl]-1H-3,1-benzimidazol-3-ium trifluoroacetate]: the Emax under setting [1] was above 80%. On the same count and under the same terms, for `Cc1ccc(Oc2nc3cc(-c4ccc([S+](C)[O-])cc4)c(Cl)cc3[nH]2)cc1C(=O)O` (stereo not shown) [Example 331, 2-(3-carboxy-4-methylphenoxy)-6-chloro-5-[4-(methylsulfinyl)phenyl]-1H-3,1-benzimidazol-3-ium formate] the value was above 80%; for `Cc1ccc(Oc2nc3cc(-c4cccc(CO)n4)c(Cl)cc3[nH]2)cc1C(=O)O` [Example 332, 2-(3-carboxy-4-methylphenoxy)-6-chloro-5-[6-(hydroxymethyl)pyridin-2-yl]-1H-3,1-benzimidazol-3-ium formate], above 80%; for `Cc1ccc(Oc2nc3cc(-c4cccc5ncccc45)c(Cl)cc3[nH]2)cc1C(=O)O` [Example 333, 2-(3-carboxy-4-methylphenoxy)-6-chloro-5-quinolin-5-yl-1H-3,1-benzimidazol-3-ium formate], above 80%. On the same count and under the same terms, for `COc1cccc(-c2cc3nc(Oc4ccc(C)c(C(=O)O)c4)[nH]c3cc2Cl)n1` [Example 334, 2-(3-carboxy-4-methylphenoxy)-6-chloro-5-(6-methoxypyridin-2-yl)-1H-3,1-benzimidazol-3-ium formate] the value was above 80%; for `Cc1ccnc(-c2cc3nc(Oc4ccc(C)c(C(=O)O)c4)[nH]c3cc2Cl)c1` [Example 335, 2-(3-carboxy-4-methylphenoxy)-6-chloro-5-(4-methylpyridin-2-yl)-1H-3,1-benzimidazol-3-ium formate], above 80%.

For `Cc1ccc(Oc2nc3cc(-c4cncc5ccccc45)c(Cl)cc3[nH]2)cc1C(=O)O` [Example 336, 2-(3-carboxy-4-methylphenoxy)-6-chloro-5-isoquinolin-4-yl-1H-3,1-benzimidazol-3-ium formate], under setting [1], the Emax is above 80%. With `Cc1ccc(Oc2nc3cc(-c4ccc(C(F)(F)F)cc4)c(Cl)cc3[nH]2)cc1C(=O)O` [Example 337, Ammonium 5-({6-chloro-5-[4-(trifluoromethyl)phen-yl]-1H-benzimidazol-2-yl}oxy)-2-methylbenzoate], under setting [3], the Emax was above 80%. Still for that read-out and setting: for `COc1cccc(-c2cc3nc(Oc4ccc(C)c(C(=O)O)c4)[nH]c3cc2Cl)c1` [Example 338, Ammonium 5-{[6-chloro-5-(3-methoxyphenyl)-1H-benzimidazol-2-yl]oxy}-2-methylbenzoate] the value was above 80%; for `Cc1ccc(Oc2nc3cc(-c4cccc(C(C)C)c4)c(Cl)cc3[nH]2)cc1C(=O)O` [Example 339, Ammonium 5-{[6-chloro-5-(3-isopropylphenyl)-1H-benzimidazol-2-yl]oxy}-2-methylbenzoate], above 80%.
